# Patent US20180256673A1, “METHODS FOR TREATING FUNGAL INFECTIONS” (priority 2015, published 2018)
# Like-named read-outs stand apart in the source and are kept apart here. Starred links: 1 amine or outer side, 2 acyl side, 3 side chain; linkers in the order of their positions; H or OH if unused. Positions of bridges follow the written chain, without caps; N, C: chain ends. Non-standard residues stand in square brackets, D forms with d. Residues, ends and D or L forms follow the SMILES beside them. *: point of attachment. Orn(4R-OH,5R-OCH2CH2NMe3+) = C[N+](C)(C)CCO[C@@H](N[*:3])[C@H](O)C[C@H](N[*:1])C(=O)[*:2]; pTerphenylCO(4''-OnC5H11) = CCCCCOc1ccc(-c2ccc(-c3ccc(C(=O)*)cc3)cc2)cc1; hTyr(3S-OH,4S-OH) = N[C@H](C(=O)O)[C@H](O)[C@@H](O)c1ccc(O)cc1; Pro(3S-OH,4S-Me) = C[C@H]1CN[C@H](C(=O)O)[C@H]1O; Hyp = O=C(O)[C@@H]1C[C@@H](O)CN1
# How the values were obtained:
# Candida parapsilosis = test: Broth microdilution of invasive fungal isolates (CLSI M27-A3/M38-A2); assay type: cell-based; conditions: 92 isolates
# Candida tropicalis = test: as above; assay type: cell-based
# Candida krusei = test: as above; assay type: cell-based; conditions: 16 isolates
# Candida dubliniensis = test: as above; assay type: cell-based; conditions: 11 isolates
# Candida orthopsilosis = test: as above; assay type: cell-based; conditions: 10 isolates
# [1] = test system: Cryptococcus neoformans var. grubii; test: as above; assay type: cell-based; conditions: 19 isolates
# C. albicans NRRL Y-477 = test: Broth microdilution MIC (CLSI), Examples 3 and 4; conditions: Candida albicans
# Protocol: Antifungal susceptibility testing. […] MIC assays were performed in triplicate.
# [2] = test system: C. glabrata ATCC 90030, ATCC 2001; test: Broth microdilution MIC (CLSI), Examples 3 and 4; conditions: Nakaseomyces glabratus
# Protocol: (§1) Antifungal susceptibility testing. Candida strains were cultured aerobically at 35° C. on SDA plates or in RPMI 1640 broth (pH 7.0). […] MIC assays were performed in triplicate.
# C. krusei ATCC 6258 = test: Broth microdilution MIC (CLSI), Examples 3 and 4; conditions: Pichia kudriavzevii, ATCC6258, 24 h, read-out: Broth MIC
# Protocol: as §1
structure (smiles),measurement,setting,value
"CCCCCOc1ccc(-c2ccc(-c3ccc(C(=O)N[C@H]4C[C@@H](O)[C@@H](OCC[N+](C)(C)C)NC(=O)[C@@H]5[C@@H](O)[C@@H](C)CN5C(=O)[C@H]([C@@H](C)O)NC(=O)[C@H]([C@H](O)[C@@H](O)c5ccc(O)cc5)NC(=O)[C@@H]5C[C@@H](O)CN5C(=O)[C@H]([C@@H](C)O)NC4=O)cc3)cc2)cc1 [Compound 1] ({pTerphenylCO(4''-OnC5H11)}-[Orn(4R-OH,5R-OCH2CH2NMe3+)]T[Hyp][hTyr(3S-OH,4S-OH)]T[Pro(3S-OH,4S-Me)]; lactam 1-C)",Cumulative % of isolates inhibited at MIC 2 μg/mL,Candida parapsilosis,(98.9) %
same,Cumulative % of isolates inhibited at MIC 4 μg/mL,Candida parapsilosis,(100.0) %
same,Number of isolates inhibited at MIC 0.5 μg/mL,Candida parapsilosis,22
same,Number of isolates inhibited at MIC 1 μg/mL,Candida parapsilosis,35
same,Number of isolates inhibited at MIC 2 μg/mL,Candida parapsilosis,34
same,Number of isolates inhibited at MIC 4 μg/mL,Candida parapsilosis,1
same,MIC50,"Candida parapsilosis; Lodderomyces parapsilosis, read-out: MIC50",1 µg/mL
same,MIC90,"Candida parapsilosis; Lodderomyces parapsilosis, read-out: MIC90",2 µg/mL
same,Cumulative % of isolates inhibited at MIC 0.015 μg/mL,Candida tropicalis; 51 isolates,(56.9) %
same,Cumulative % of isolates inhibited at MIC 0.03 μg/mL,Candida tropicalis; 51 isolates,(88.2) %
same,Cumulative % of isolates inhibited at MIC 0.06 μg/mL,Candida tropicalis; 51 isolates,(100.0) %
same,Cumulative % of isolates inhibited at MIC ≤0.008 μg/mL,Candida tropicalis; 51 isolates,(3.9) %
same,Number of isolates inhibited at MIC 0.015 μg/mL,Candida tropicalis; 51 isolates,27
same,Number of isolates inhibited at MIC 0.03 μg/mL,Candida tropicalis; 51 isolates,16
same,Number of isolates inhibited at MIC 0.06 μg/mL,Candida tropicalis; 51 isolates,6
same,Number of isolates inhibited at MIC ≤0.008 μg/mL,Candida tropicalis; 51 isolates,2
same,MIC50,"Candida tropicalis; Candida tropicalis, 51 isolates, read-out: MIC50",0.015 µg/mL
same,MIC90,"Candida tropicalis; Candida tropicalis, 51 isolates, read-out: MIC90",0.06 µg/mL
same,concentration at which all isolates were inhibited,Candida tropicalis; n=51,≤ 0.06 µg/mL
same,Cumulative % of isolates inhibited at MIC 0.015 μg/mL,Candida krusei,(18.8) %
same,Cumulative % of isolates inhibited at MIC 0.03 μg/mL,Candida krusei,(87.5) %
same,Cumulative % of isolates inhibited at MIC 0.06 μg/mL,Candida krusei,(100.0) %
same,Number of isolates inhibited at MIC 0.015 μg/mL,Candida krusei,3
same,Number of isolates inhibited at MIC 0.03 μg/mL,Candida krusei,11
same,Number of isolates inhibited at MIC 0.06 μg/mL,Candida krusei,2
same,concentration at which all isolates were inhibited,Candida krusei,≤ 0.06 µg/mL
same,MIC50,"Candida krusei; Pichia kudriavzevii, read-out: MIC50",0.03 µg/mL
same,MIC90,"Candida krusei; Pichia kudriavzevii, read-out: MIC90",0.06 µg/mL
same,Cumulative % of isolates inhibited at MIC 0.03 μg/mL,Candida dubliniensis,(54.5) %
same,Cumulative % of isolates inhibited at MIC 0.06 μg/mL,Candida dubliniensis,(90.9) %
same,Cumulative % of isolates inhibited at MIC 0.12 μg/mL,Candida dubliniensis,(100.0) %
same,Number of isolates inhibited at MIC 0.03 μg/mL,Candida dubliniensis,6
same,Number of isolates inhibited at MIC 0.06 μg/mL,Candida dubliniensis,4
same,Number of isolates inhibited at MIC 0.12 μg/mL,Candida dubliniensis,1
same,MIC50,"Candida dubliniensis; Candida dubliniensis, read-out: MIC50",0.03 µg/mL
same,MIC90,"Candida dubliniensis; Candida dubliniensis, read-out: MIC90",0.06 µg/mL
same,Cumulative % of isolates inhibited at MIC 0.12 μg/mL,Candida orthopsilosis,(10.0) %
same,Cumulative % of isolates inhibited at MIC 0.25 μg/mL,Candida orthopsilosis,(40.0) %
same,Cumulative % of isolates inhibited at MIC 0.5 μg/mL,Candida orthopsilosis,(50.0) %
same,Cumulative % of isolates inhibited at MIC 1 μg/mL,Candida orthopsilosis,(90.0) %
same,Cumulative % of isolates inhibited at MIC 2 μg/mL,Candida orthopsilosis,(100.0) %
same,Number of isolates inhibited at MIC 0.12 μg/mL,Candida orthopsilosis,1
same,Number of isolates inhibited at MIC 0.25 μg/mL,Candida orthopsilosis,3
same,Number of isolates inhibited at MIC 0.5 μg/mL,Candida orthopsilosis,1
same,Number of isolates inhibited at MIC 1 μg/mL,Candida orthopsilosis,4
same,Number of isolates inhibited at MIC 2 μg/mL,Candida orthopsilosis,1
same,MIC50,"Candida orthopsilosis; Lodderomyces orthopsilosis, read-out: MIC50",0.5 µg/mL
same,MIC90,"Candida orthopsilosis; Lodderomyces orthopsilosis, read-out: MIC90",1 µg/mL
same,Cumulative % of isolates inhibited at MIC 8 μg/mL,[1],(31.6) %
same,Cumulative % of isolates inhibited at MIC >8 μg/mL,[1],(100.0) %
same,Number of isolates inhibited at MIC 8 μg/mL,[1],6
same,Number of isolates inhibited at MIC >8 μg/mL,[1],13
same,MIC50,"[1]; Cryptococcus neoformans, read-out: MIC50",8 µg/mL
same,MIC90,"[1]; Cryptococcus neoformans, read-out: MIC90",8 µg/mL
same,MIC,C. albicans NRRL Y-477; NRRLY477,0.25 µg/mL
same,MIC,"C. albicans NRRL Y-477; NRRLY477, 24 h, read-out: Broth MIC",0.03 µg/mL
same,MIC,"[2]; ATCC2001|ATCC90030, 24 h, read-out: Broth MIC, ATCC 2001 wild-type, 24 h, ~50% inhibition",0.125 µg/mL
same,MIC,"[2]; ATCC2001|ATCC90030, 24 h, read-out: Broth MIC, ATCC 90030 wild-type, 24 h, ~50% inhibition",0.06 µg/mL
same,MIC,"[2]; ATCC2001|ATCC90030, ATCC 2001 spontaneous mutant, Fks2 HS1 D666N",0.5 µg/mL
same,MIC,"[2]; ATCC2001|ATCC90030, ATCC 2001 spontaneous mutant, Fks2 HS1 D666Y",0.5 µg/mL
same,MIC,"[2]; ATCC2001|ATCC90030, ATCC 2001 spontaneous mutant, Fks2 HS1 R665G",0.5 µg/mL
same,MIC,"[2]; ATCC2001|ATCC90030, ATCC 2001 spontaneous mutant, Fks2 HS1 S663F",1 µg/mL
same,MIC,"[2]; ATCC2001|ATCC90030, ATCC 2001 spontaneous mutant, Fks2 HS1 ΔF659",2 µg/mL
same,MIC,"[2]; ATCC2001|ATCC90030, ATCC 2001 spontaneous mutant, Fks2 HS2 R1378S",0.25 µg/mL
same,MIC,"[2]; ATCC2001|ATCC90030, ATCC 90030 spontaneous mutant, Fks2 HS1 D666H",0.25 µg/mL
same,MIC,"[2]; ATCC2001|ATCC90030, ATCC 90030 spontaneous mutant, Fks2 HS1 ΔF659",2 µg/mL
same,MIC,C. krusei ATCC 6258,0.06 µg/mL
